In patent US10159634B2, “Compositions and methods for inhibiting hair growth” (priority 2009, dated 2018):

System: C3H mice
Test: Telogen Conversion Assay
Assay type: in vivo
Details: for hair growth (average grade): grades of 7 mice after 23 days, example written in present tense; for Average Grades: average of 7 mice, visual grade 0 (pink skin) to 4 (full anagen), topical; for hair regrowth (regrowth score, FIG. 1): applied daily, week 3 and week 4, at the appropriate dose-level, compared to the control group
Description: FP receptor antagonists are tested for their potential to […] using the Telogen Conversion Assay. The Telogen Conversion Assay measures the potential of a FP receptor antagonist to inhibit the conversion of mice in the resting stage of the hair growth cycle (“telogen”), to the growth stage of the hair growth cycle (“anagen”), and to assess the rate of anagen growth.
Without intending to be limited by theory, there are three principal phases of the hair growth cycle: anagen, catagen, and telogen. It is believed that there is a longer telogen period in C3H mice (Harlan Sprague Dawley, Inc., Indianapolis, Ind.) from approximately 40 days of age until about 75 days of age, when hair growth is synchronized. It is believed that after 75 days of age, hair growth is no longer synchronized. Wherein about 40 day-old mice with dark fur (brown or black) are used in hair growth experiments, melanogenesis occurs along with hair (fur) growth wherein the topical application of hair growth inducers is evaluated. The Telogen Conversion Assay herein is used to screen FP receptor antagonists for potential hair growth by measuring melanogenesis and/or inhibition of expected hair growth.
Three groups of 44 day-old C3H mice are used: a vehicle control group, a positive control group, and a test FP receptor antagonist group, wherein the test FP receptor antagonist group is administered a FP receptor antagonist F used in the method of this invention. The length of the assay is typically 24 days with 15 treatment days (wherein the treatment days occur Mondays through Fridays). Day 1 is the first day of treatment. Typical dosage concentrations are set forth in Table 1, however the skilled artisan will readily understand that such concentrations may be modified.
The mice are treated topically Monday through Friday on their lower back (base of tail to the lower rib). A pipette and tip are used to deliver 400 μl to each mouse's back. The 400 μL application is applied slowly while moving hair on the mouse to allow the application to reach the skin.
While each treatment is being applied to the mouse topically, a visual grade of from 0 to 4 will be given to the skin color in the application area of each animal. As a mouse converts from telogen to anagen, its skin color will become more bluish-black.

Compound	hair growth (average grade)	Average Grades (23 Days)	hair regrowth (regrowth score, FIG. 1)	Average Grades (25 Days)	Average Grades (26 Days)
CC(C)OC(=O)CCC/C=C\CC1C(/C=C/[C@H](O)C2Cc3ccccc3C2)[C@@H](F)C[C@@H]1O (stereo partly drawn) [Example 4]	significantly reduces hair growth				
Ile-Leu-Gly-His-(citrulline)-Asp-Tyr-Lys [Example 5]	significantly reduces hair growth				
COC(=O)CCC/C=C\CC1C(/C=C/[C@H](O)C2Cc3ccccc3C2)[C@@H](F)C[C@@H]1O (stereo partly drawn) [Example 2]		0.1	inhibited hair regrowth		
O=C(N[C@H](c1ccccc1)c1ccccn1)[C@@H]1SCCN1S(=O)(=O)c1ccc(-c2ccccc2)cc1 [Example 3]	significantly reduces hair growth		inhibited hair regrowth		
O=C(O)CCC/C=C\CC1C(/C=C/[C@H](O)C2Cc3ccccc3C2)[C@@H](F)C[C@@H]1O (stereo partly drawn) [Example 1]		0.4		0.1	0.7
